The text below walks through data of patent US9359341B2, “Aldehyde derivative of substitute oxazolidinones” (WANBURY LTD., priority 2012, dated 2016).

Series [1] deals with plasma protein. Put plainly: Plasma protein binding (mouse). The class given is in vitro ADME. As for the experimental part:
(§1) A compound solution (1 mM in DMSO) (5 μL), according to the invention is added to the respective plasma matrices of rat or human or mouse (1 ml).
(§2) Add 150 ul of phosphate buffer to receiving side of the dialysis well. […] Precipitate with Acetonitrile and dilute samples prior to analysis in 1.5 ml polypropylene tubes. Remove 50 μl from the sample side of dialysis well and add 50 μl of phosphate buffer +300 μl of acetonitrile containing IS. Remove 50 μl from the buffer side of the dialysis well and add 50 μl of respective matrix plasma +300 μl of ACN. Then vortexed and centrifuged for 5 min, and supernatant is taken and injected into LCMS.
(§3) Different test concentration ranging from 0.1 μM to 20 μM are made in methanol:water (90:10). Test solutions are added to the premixed matrix containing plasma:phosphate buffer (50:50). Precipitate with 300 μl of ice cold acetonitrile containing IS, vortexes and centrifuged. Supernatant is taken and injected into LCMS. Percentage of plasma protein binding was obtained via Equation(2):% Fraction unbound=(concentration on the buffer side/concentration on the sample side)*100 Table-7

The subject of series [2] is plasma protein. Put plainly: Plasma protein binding (rat). The series is classed as in vitro ADME. As for the experimental part: as §1, §2, §3
Series [3] can be described thus: Intravenous and oral pharmacokinetics in Wistar rats. The series is classed as in vivo. Particulars: for plasma exposure (AUC, C max) as compared to Rivaroxaban: Wistar rats, IV 1 mg/kg and PO 10 mg/kg. As for the experimental part: On the day before administration of the substance, a catheter for obtaining blood is implanted in the jugular vein of the experimental animals (male Wistar rats, body weight 200-250 g) under Isofluran® anesthesia.
Blood samples (8-12 time points) are taken through the catheter sequentially over the course of 24 h after administration of the substance. The administration volume is 10 ml/kg for oral and 1 ml/kg for IV in male Wistar rats. Intravenous administration is via a formulation of 2% N—N Dimethyl acetamide/ethanol 10%/PEG400 (30%)/water for IV injection (58%) and via Tween80/PEG400/sterile water in the case of oral administration. Removal of blood is after 0.08, 0.25, 0.5, 1, 2, 3, 4, 6, 8 and 12 hours in the case of IV and, blood withdrawn after 0.25, 0.5, 1.0, 2, 3, 4, 6, 8 and 12 hours for oral administration.
Plasma is obtained by centrifuging the samples in heparinized tubes. IS containing Acetonitrile is added to a defined plasma volume per time point to precipitate proteins. After centrifugation, compound formula (B) and, where appropriate, known cleavage products of the compound formula (B) in the supernatant are determined quantitatively using a suitable LC/MS-MS method.
The measured plasma concentrations are used to calculate pharmacokinetic parameters of the test substance and of the active ingredient compound (A) liberated there from, such as AUC, Cmax, T½ (half-life) and CL (clearance).
Acetonitrile containing IS is added to the study samples, calibration samples and QCs, and the protein is precipitated using acetonitrile. Vortexed and centrifuged at 4000 rpm and the supernatant is injected by LC-MS/MS (API 4000, AB Sciex). Chromatographic separation is carried out on an Shimadzu UFLC. The injection volume is 10 μl. The separation column used is a Phenomenex Gemini NX 4.6×5μ. 100 mm, adjusted to a temperature of 30° C. […]
The plasma concentration/time plots determined are used to calculate the pharmacokinetic parameters such as AUC, Cmax, MRT (mean residence time), t½ (half life) and CL (clearance) employing the validated pharmacokinetic calculation programs.

Series [4] is described as follows: Intravenous and oral excretion profile in Wistar rats. The class given is in vivo. As for the experimental part: On the day before administration of the substance, a catheter for obtaining blood is implanted in the jugular vein of the experimental animals (male Wistar rats, body weight 200-250 g) under Isoflurane. anesthesia.
Urine and faeces are taken collected from metabolic cages over the course of 144 h after administration of the substance. The administration volume is 10 ml/kg for oral and 1 ml/kg for IV in male Wistar rats. Intravenous administration is via a formulation of 2% N—N Dimethyl acetamide/ethanol 10%/PEG400 (30%)/water for IV injection (58%) and via Tween80/PEG400/sterile water in the case of oral administration. Urine and faeces collection is 0-4, 4-8, 8-24, 24-48, 48-72, 72-96, 96-120, 120-144 in the case of IV and for oral administration.
Urine and faeces was processed and IS containing Acetonitrile is added to a defined urine/faeces and precipitated. After centrifugation, compound formula (B) and, where appropriate, known cleavage products of the compound formula (B) in the supernatant are determined quantitatively using a suitable LC/MS-MS method.
The measured urine and faeces concentrations are used to calculate parameters of the test substance and of the active ingredient compound (A) liberated there from, such as AUC and Cmax.
Acetonitrile containing IS is added to the study samples, calibration samples and QCs, and the protein is precipitated using acetonitrile. Vortexed and centrifuged and the supernatant is injected by LC-MS/MS (API 4000, AB Sciex). Chromatographic separation is carried out on an Shimadzu UFLC. The injection volume is 10 μl. The separation column used is a Phenomenex Gemini NX 4.6×5μ. 100 mm, adjusted to a temperature of 30° C. A binary mobile phase gradient at 800.mu·l/min is used (A: 0.1% formic acid in water, B: acetonitrile: API 4000, ESI Agilent 1100 column: Gemini Nx 100 mm×4.6 mm 5.μ; column temperature: 30° C.; eluent A: 0.1% formic acid in water, eluent B: acetonitrile; gradient: 0-2.5 min 95% A, 5% B; 2.5-2.6 min 5% A, 95% B; 2.6-4.2 min 95% A, 5% B; flow rate: 0.8 ml/min; ESI. Q1:464.098, Q3:144.255 The temperature of the Turbo V ion source is 500° C. The following MS instrument parameters are used: curtain gas 20 units, ion spray voltage 5 kV, gas 1 50 units gas 2 50 units, CAD gas 6 units. The substances are quantified by peak heights or areas using extracted ion chromatograms of specific MRM experiments.

Where [5] appears, read: after i.v. administration, at the first measurement point.

The structures appear in SMILES notation.

`O=CN(C[C@H]1CN(c2ccc(N3CCOCC3=O)cc2)C(=O)O1)C(=O)c1ccc(Cl)s1` [Compound formula B, 5-chloro-N-formyl-N-({(5S)-2-oxo-3-[4-(3-oxomorpholin-4-yl)phenyl]-1,3-oxazolidin-5-yl}methyl)thiophene-2-carboxamide]: the “Observation: amount of test product” value in series [1] and in series [2] was “Not quantificable amount” each time. Moreover, the “Observation: formed Rivaroxaban bound to plasma protein” value in series [1] and in series [2] was “found to be moderate-High” each time. Besides, the “plasma exposure (AUC, C max) as compared to Rivaroxaban” value in series [3] is listed as “increased exposure”; in series [3] (listed as Test product) it was “higher”. In addition, the “detectability of test substance in plasma” value in series [3] (setting [5]) is given as “no longer detectable in plasma”. Further, in series [4] (IV 1 mg/Kg, rivaroxaban in faeces, 144 h), the “Mean (ng/G) Faeces” value is “BLQ”. Besides, the “Mean (ng) Urine” value in series [4] (IV 1 mg/Kg, rivaroxaban in urine, 120 h) is “BLQ”. The “amount of rivaroxaban present in faeces as compared to rivaroxaban alone” value in series [4] (Wistar rats) is recorded as “lesser amount of rivaroxaban present in faeces”. Besides, the “detectability of test substance in urine and faeces” value in series [4] (setting [5]) is “no longer detectable in urine and faeces”.
